# How the values were obtained:
# [1] = tested on: interferon and interferon-induced antiviral effector gene expression in cells expressing ORF8; assay: qPCR of interferons and effector gene expression, ORF8; assay type: cell-based, human
# [2] = tested on: interferon and interferon-induced antiviral effector gene expression in cells expressing ORF10; assay: qPCR of interferons and effector gene expression, ORF10; assay type: cell-based, human
smiles,measurement,setting,value
"C=C(C)[C@@H]1CCC(C)=C[C@H]1c1c(O)cc(CCCCC)cc1O [Cannabidiol, 2-[(1R,6R)-3-Methyl-6-(1-methylethenyl)-2-cyclohexen-1-yl]-5-pentyl-1,3-benzenediol]",Interferon Lambda 1 mRNA expression,"[1]; ORF8, 1 μM CBD vs vehicle alone, 24 hours (FIG. 9A)",significantly increased
same,extent of OAS1 augmentation compared with cells transfected with control vector,"[1]; ORF8, 1 μM CBD, 24 hours",significantly higher
same,INF-gamma expression,"[1]; ORF8, 1 μM CBD, 24 hours, compared with effect in control cells (FIG. 9B)",greater effect
same,OAS1 gene expression,"[1]; ORF8, 1 μM CBD, 24 hours, relative to all other groups and treatments (FIG. 10)",highly significant increase
same,induction of OAS1,"[2]; ORF10, 1 μM CBD relative to vehicle alone, 24 hours (FIG. 14)",significantly increased
same,OAS1 induction compared with CBD plus control plasmid,"[2]; ORF10, 1 μM CBD, 24 hours",lower

# Reference: US20240226120A1 (priority 2020, published 2024)
